Consider six compounds from ChEMBL document CHEMBL4825673, “Total and Semisyntheses of Polymyxin Analogues with 2-Thr or 10-Thr Modifications to Decipher the Structure-Activity Relationship and Improve the Antibacterial Activity” (J Med Chem, 2021).

Values after ≈ are worked out from the molar mass of the structure shown. Positions of bridges follow the written chain, without caps; N, C: chain ends. Non-standard residues stand in square brackets, D forms with d. Residues, ends and D or L forms follow the SMILES beside them. *: point of attachment. Octanoyl = CCCCCCCC(=O)*; Dab = NCC[C@H](N)C(=O)O

Data set [1] has as its system HK-2. Kind of data set: Cytotoxicity against human HK-2 cells assessed as cell viability incubated for 72 hrs by CCK-8 assay. It counts as cell-based. Conditions: hk-2, 72 h. (In general: Tetrazolium assays rely on reduction of a dye to a coloured formazan, in cell work by metabolically active cells.)
Data set [2] has as its system Pseudomonas aeruginosa. Kind of data set: Antibacterial activity against Pseudomonas aeruginosa PAO1 assessed as inhibition of bacterial growth incubated for 24 hrs by broth microdilution method. It counts as functional. Conditions: read-out: MIC100. For orientation: Broth dilution looks for growth in wells or tubes with falling amounts of substance.
In data set [3] the test system is Klebsiella pneumoniae. Kind of data set: Antibacterial activity against Klebsiella pneumoniae KR15-2 assessed as inhibition of bacterial growth incubated for 24 hrs by broth microdilution method. It is filed as functional. Conditions: read-out: MIC100.
The test system of data set [4] is Klebsiella pneumoniae. Kind of data set: Antibacterial activity against Klebsiella pneumoniae assessed as inhibition of bacterial growth incubated for 24 hrs by broth microdilution method. It counts as functional. Conditions: read-out: MIC100.
Data set [5] deals with Moraxella catarrhalis. Kind of data set: Antibacterial activity against Moraxella catarrhalis BCA15-3 assessed as inhibition of bacterial growth incubated for 24 hrs by broth microdilution method. Conditions: read-out: MIC100. It counts as functional.
For data set [6], the system named is Escherichia coli. Kind of data set: Antibacterial activity against Escherichia coli ECO+14-2 assessed as inhibition of bacterial growth incubated for 24 hrs by broth microdilution method. The settings on record: read-out: MIC100. It is filed as functional.
In data set [7] the test system is Moraxella catarrhalis. Kind of data set: Antibacterial activity against Moraxella catarrhalis assessed as inhibition of bacterial growth incubated for 24 hrs by broth microdilution method. It counts as functional. The settings on record: read-out: MIC100.
For data set [8], the system named is Acinetobacter baumannii. Kind of data set: Antibacterial activity against Acinetobacter baumannii AR15-4 assessed as inhibition of bacterial growth incubated for 24 hrs by broth microdilution method. The settings on record: read-out: MIC100. It counts as functional.
The test system of data set [9] is Acinetobacter baumannii. Kind of data set: Antibacterial activity against Acinetobacter baumannii ABA15-6 assessed as inhibition of bacterial growth incubated for 24 hrs by broth microdilution method. It counts as functional. Conditions: read-out: MIC100.
In data set [10] the test system is Acinetobacter baumannii. Kind of data set: Antibacterial activity against Acinetobacter baumannii assessed as inhibition of bacterial growth incubated for 24 hrs by broth microdilution method. It counts as functional. Conditions: read-out: MIC100.
Data set [11] relates to Moraxella catarrhalis. Kind of data set: Antibacterial activity against Moraxella catarrhalis BCA14-7 assessed as inhibition of bacterial growth incubated for 24 hrs by broth microdilution method. It is filed as functional. Conditions: read-out: MIC100.
For data set [12], the system named is Pseudomonas aeruginosa. Kind of data set: Antibacterial activity against Pseudomonas aeruginosa PR15-1 assessed as inhibition of bacterial growth incubated for 24 hrs by broth microdilution method. The settings on record: read-out: MIC100. It counts as functional.
The subject of data set [13] is Pseudomonas aeruginosa. Kind of data set: Antibacterial activity against Pseudomonas aeruginosa PAE15-3 assessed as inhibition of bacterial growth incubated for 24 hrs by broth microdilution method. It counts as functional. Conditions: read-out: MIC100.
Data set [14] concerns Acinetobacter baumannii. Kind of data set: Antibacterial activity against Acinetobacter baumannii ABA15-5 assessed as inhibition of bacterial growth incubated for 24 hrs by broth microdilution method. It is filed as functional. The settings on record: read-out: MIC100.
For data set [15], the system named is Acinetobacter baumannii. Kind of data set: Antibacterial activity against Acinetobacter baumannii ABA15-4 assessed as inhibition of bacterial growth incubated for 24 hrs by broth microdilution method. It counts as functional. Conditions: read-out: MIC100.
Data set [16] has as its system Pseudomonas aeruginosa. Kind of data set: Antibacterial activity against Pseudomonas aeruginosa ATCC 27853 assessed as inhibition of bacterial growth incubated for 24 hrs by broth microdilution method. The settings on record: read-out: MIC100. It is filed as functional.
For data set [17], the system named is Escherichia coli. Kind of data set: Antibacterial activity against Escherichia coli assessed as inhibition of bacterial growth incubated for 24 hrs by broth microdilution method. The settings on record: read-out: MIC100. It counts as functional.
Data set [18] deals with Klebsiella pneumoniae. Kind of data set: Antibacterial activity against Klebsiella pneumoniae KPN+14-10 assessed as inhibition of bacterial growth incubated for 24 hrs by broth microdilution method. It counts as functional. The settings on record: read-out: MIC100.
Data set [19] relates to Pseudomonas aeruginosa. Kind of data set: Antibacterial activity against Pseudomonas aeruginosa PAE15-8 assessed as inhibition of bacterial growth incubated for 24 hrs by broth microdilution method. The settings on record: read-out: MIC100. It is filed as functional.
Data set [20] relates to Escherichia coli. Kind of data set: Antibacterial activity against Escherichia coli ECO+14-3 assessed as inhibition of bacterial growth incubated for 24 hrs by broth microdilution method. It counts as functional. The settings on record: read-out: MIC100.
For data set [21], the system named is Pseudomonas aeruginosa. Kind of data set: Antibacterial activity against Pseudomonas aeruginosa PAE15-14 assessed as inhibition of bacterial growth incubated for 24 hrs by broth microdilution method. It counts as functional. The settings on record: read-out: MIC100.
Data set [22] relates to Pseudomonas aeruginosa. Kind of data set: Antibacterial activity against Pseudomonas aeruginosa PAE15-5 assessed as inhibition of bacterial growth incubated for 24 hrs by broth microdilution method. It counts as functional. Conditions: read-out: MIC100.
For data set [23], the system named is Escherichia coli. Kind of data set: Antibacterial activity against Escherichia coli ECO-14-2 assessed as inhibition of bacterial growth incubated for 24 hrs by broth microdilution method. It counts as functional. The settings on record: read-out: MIC100.
Data set [24] deals with Klebsiella pneumoniae. Kind of data set: Antibacterial activity against Klebsiella pneumoniae KPN+14-8 assessed as inhibition of bacterial growth incubated for 24 hrs by broth microdilution method. It is filed as functional. The settings on record: read-out: MIC100.
Data set [25] concerns Pseudomonas aeruginosa. Kind of data set: Antibacterial activity against Pseudomonas aeruginosa assessed as inhibition of bacterial growth incubated for 24 hrs by broth microdilution method. It counts as functional. The settings on record: read-out: MIC100.

As to `CC[C@H](C)CCCCC(=O)N[C@@H](CCN)C(=O)N[C@H](C(=O)N[C@@H](CCN)C(=O)N[C@H]1CCNC(=O)[C@H]([C@@H](C)OC(=O)[C@@H](N)CC(=O)O)NC(=O)[C@H](CCN)NC(=O)[C@H](CCN)NC(=O)[C@H](CC(C)C)NC(=O)[C@@H](Cc2ccccc2)NC(=O)[C@H](CCN)NC1=O)[C@@H](C)OC(=O)[C@@H](N)CC(=O)O`, in data set [1], the Activity result was “Non-Toxic”. For the same compound, in [2], the MIC was found to be 4 µg/mL (≈ 2.79 µM).
As for `CCCCCc1ccc(CN[C@@H](CCN)C(=O)N[C@H](C(=O)N[C@@H](CCN)C(=O)N[C@H]2CCNC(=O)[C@H]([C@@H](C)O)NC(=O)[C@H](CCN)NC(=O)[C@H](CCN)NC(=O)[C@H](CC(C)C)NC(=O)[C@@H](Cc3ccccc3)NC(=O)[C@H](CCN)NC2=O)[C@@H](C)O)cc1`, the MIC stood at 1 µg/mL (≈ 0.817 µM) in data set [3]; 1 µg/mL (≈ 0.817 µM) in [4]; 1 µg/mL (≈ 0.817 µM) in data set [5]; 1 µg/mL (≈ 0.817 µM) in data set [6]; 8 µg/mL (≈ 6.54 µM) in data set [7]; 0.25 µg/mL (≈ 0.204 µM) in [8]. Moreover, the MIC in data set [9] is 0.5 µg/mL (≈ 0.409 µM); in data set [10], 0.25 µg/mL (≈ 0.204 µM); in data set [11] it was 8 µg/mL (≈ 6.54 µM); in data set [12], 0.5 µg/mL (≈ 0.409 µM); in [13], 0.5 µg/mL (≈ 0.409 µM); in data set [14] it was 0.25 µg/mL (≈ 0.204 µM). Besides, the MIC in [15] was found to be 0.5 µg/mL (≈ 0.409 µM); in data set [16], 0.25 µg/mL (≈ 0.204 µM); in [17] it was 0.5 µg/mL (≈ 0.409 µM); in data set [18], 2 µg/mL (≈ 1.63 µM); in data set [19], 0.5 µg/mL (≈ 0.409 µM); in data set [20], 0.5 µg/mL (≈ 0.409 µM). For the same compound, the MIC in [21] was 0.5 µg/mL (≈ 0.409 µM); in [22], 0.5 µg/mL (≈ 0.409 µM); in data set [23], 0.5 µg/mL (≈ 0.409 µM); in data set [24], 4 µg/mL (≈ 3.27 µM); in data set [2] it was 2 µg/mL (≈ 1.63 µM); in [25], 0.25 µg/mL (≈ 0.204 µM).
As to `CC[C@H](C)CCCCC(=O)N[C@@H](CCN)C(=O)N[C@H](C(=O)N[C@@H](CCN)C(=O)N[C@H]1CCNC(=O)[C@H]([C@@H](C)O)NC(=O)[C@H](CCN)NC(=O)[C@H](CCN)NC(=O)[C@H](CC(C)C)NC(=O)[C@@H](Cc2ccccc2)NC(=O)[C@H](CCN)NC1=O)[C@@H](C)OC(=O)[C@@H](N)CCC(N)=O`, the Activity result in data set [1] is recorded as “Non-Toxic”.
The same measure, in the same setting: the result for `CC[C@H](C)CCCCC(=O)N[C@@H](CCN)C(=O)N[C@H](C(=O)N[C@@H](CCN)C(=O)N[C@H]1CCNC(=O)[C@H]([C@@H](C)O)NC(=O)[C@H](CCN)NC(=O)[C@H](CCN)NC(=O)[C@H](CC(C)C)NC(=O)[C@@H](Cc2ccccc2)NC(=O)[C@H](CCN)NC1=O)[C@@H](C)OC(=O)[C@@H](N)CCC(=O)O` reads “Non-Toxic”.
As to `CCCCCCCC(=O)N[C@@H](CCN)C(=O)N[C@H](C(=O)N[C@@H](CCN)C(=O)N[C@H]1CCNC(=O)[C@H]([C@@H](C)O)NC(=O)[C@H](CCN)NC(=O)[C@H](CCN)NC(=O)[C@H](CC(C)C)NC(=O)[C@@H](Cc2ccccc2)NC(=O)[C@H](CCN)NC1=O)[C@@H](C)O` (Octanoyl-[Dab]T[Dab][Dab][Dab][dF]L[Dab][Dab]T; lactam 4-C), the MIC was found to be 2 µg/mL (≈ 1.68 µM) in [3]; 2 µg/mL (≈ 1.68 µM) in data set [4]; 1 µg/mL (≈ 0.841 µM) in [5]; 2 µg/mL (≈ 1.68 µM) in [6]; 16 µg/mL (≈ 13.5 µM) in data set [7]; 0.06 µg/mL (≈ 0.0504 µM) in data set [8]. Also, the MIC in [9] was less than 0.03 µg/mL; in [10], 0.03 µg/mL (≈ 0.0252 µM); in data set [11] it was 32 µg/mL (≈ 26.9 µM); in [12] it was 0.25 µg/mL (≈ 0.21 µM); in [13], 0.25 µg/mL (≈ 0.21 µM); in data set [14], 0.125 µg/mL (≈ 0.105 µM). Besides, the MIC was less than 0.03 µg/mL in data set [15]; 0.25 µg/mL (≈ 0.21 µM) in data set [17]; 2 µg/mL (≈ 1.68 µM) in [18]; 0.25 µg/mL (≈ 0.21 µM) in data set [19]; 0.25 µg/mL (≈ 0.21 µM) in data set [20]; 0.25 µg/mL (≈ 0.21 µM) in data set [21]. Moreover, the MIC in data set [22] was determined as 0.125 µg/mL (≈ 0.105 µM); in data set [23], 0.25 µg/mL (≈ 0.21 µM); in [24] it was 8 µg/mL (≈ 6.73 µM); in [2], 4 µg/mL (≈ 3.36 µM); in data set [25], 0.03 µg/mL (≈ 0.0252 µM).
In the case of `CCCCCCCC(=O)N[C@@H](CCN)C(=O)NC(Cc1ccc(O)cc1)C(=O)N[C@@H](CCN)C(=O)N[C@H]1CCNC(=O)[C@H]([C@@H](C)O)NC(=O)[C@H](CCN)NC(=O)[C@H](CCN)NC(=O)[C@H](CC(C)C)NC(=O)[C@@H](Cc2ccccc2)NC(=O)[C@H](CCN)NC1=O` (single isomer, unassigned), the MIC is more than 64 µg/mL in [4]; 8 µg/mL (≈ 6.39 µM) in data set [7]; more than 64 µg/mL in data set [10]; 16 µg/mL (≈ 12.8 µM) in [17]; 32 µg/mL (≈ 25.6 µM) in data set [2]; 2 µg/mL (≈ 1.6 µM) in data set [25].
